Assay results reported in US20240269139A1, “COMPOUNDS FOR TARGETED PROTEIN DEGRADATION OF KINASES” (DANA-FARBER CANCER INSTITUTE, INC., priority 2020, published 2024).
Like-named read-outs stand apart in the source and are kept apart here.

Legend:
Assay type in all cases: cell-based
[1] = system: protein kinases (human kinome); conditions: for logFC LCK: accession P06239-3; for logFC RPS6KA1: RPS6KA1 (Q15418-2)
[2] = target: protein kinases (human kinome) (Homo sapiens, UniProt P11802)
[3] = target: protein kinases (human kinome) (Homo sapiens, UniProt P51451); conditions: for logFC BLK: BLK (P51451), direction down; for logFC of BLK: BLK P51451, experiment wp016; for logFC of BLK (P51451): down
[4] = target: protein kinases (human kinome) (Homo sapiens, UniProt P53671); conditions: for logFC LIMK2: LIMK2 (P53671), down; for logFC of LIMK2: LIMK2 P53671
[5] = experiment wp016, direction of change down
[6] = experiment wp103, direction of change down
[7] = experiment wp107, direction of change down
[8] = experiment wp133, 2 hr, direction of change down
[9] = experiment wp133, 4 hr, direction of change down

Chain of protein kinases (human kinome) (Homo sapiens, UniProt P11802) (P11802 whole entry): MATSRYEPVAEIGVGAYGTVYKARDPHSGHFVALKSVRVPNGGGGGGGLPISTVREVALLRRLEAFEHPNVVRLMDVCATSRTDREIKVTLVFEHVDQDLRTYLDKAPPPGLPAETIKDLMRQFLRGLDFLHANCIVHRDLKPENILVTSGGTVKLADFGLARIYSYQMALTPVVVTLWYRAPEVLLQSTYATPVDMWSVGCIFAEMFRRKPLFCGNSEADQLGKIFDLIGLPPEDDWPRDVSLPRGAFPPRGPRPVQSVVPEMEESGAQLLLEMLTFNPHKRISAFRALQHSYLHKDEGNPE
Chain of protein kinases (human kinome) (Homo sapiens, UniProt P51451) (P51451 whole entry): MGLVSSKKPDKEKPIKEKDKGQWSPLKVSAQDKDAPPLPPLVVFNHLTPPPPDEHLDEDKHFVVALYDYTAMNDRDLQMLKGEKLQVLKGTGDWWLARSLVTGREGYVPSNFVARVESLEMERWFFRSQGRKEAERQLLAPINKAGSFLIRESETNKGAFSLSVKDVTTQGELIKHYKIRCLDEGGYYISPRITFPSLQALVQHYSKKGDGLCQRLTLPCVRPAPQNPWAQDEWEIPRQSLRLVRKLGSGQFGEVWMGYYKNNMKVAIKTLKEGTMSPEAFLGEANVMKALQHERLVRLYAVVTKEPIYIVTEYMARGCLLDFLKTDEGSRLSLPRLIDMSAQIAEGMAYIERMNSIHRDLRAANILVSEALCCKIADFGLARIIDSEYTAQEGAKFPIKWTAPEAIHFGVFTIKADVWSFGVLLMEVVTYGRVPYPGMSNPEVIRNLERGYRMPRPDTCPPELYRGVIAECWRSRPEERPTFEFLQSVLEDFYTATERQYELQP
Chain of protein kinases (human kinome) (Homo sapiens, UniProt P53671) (P53671 whole entry): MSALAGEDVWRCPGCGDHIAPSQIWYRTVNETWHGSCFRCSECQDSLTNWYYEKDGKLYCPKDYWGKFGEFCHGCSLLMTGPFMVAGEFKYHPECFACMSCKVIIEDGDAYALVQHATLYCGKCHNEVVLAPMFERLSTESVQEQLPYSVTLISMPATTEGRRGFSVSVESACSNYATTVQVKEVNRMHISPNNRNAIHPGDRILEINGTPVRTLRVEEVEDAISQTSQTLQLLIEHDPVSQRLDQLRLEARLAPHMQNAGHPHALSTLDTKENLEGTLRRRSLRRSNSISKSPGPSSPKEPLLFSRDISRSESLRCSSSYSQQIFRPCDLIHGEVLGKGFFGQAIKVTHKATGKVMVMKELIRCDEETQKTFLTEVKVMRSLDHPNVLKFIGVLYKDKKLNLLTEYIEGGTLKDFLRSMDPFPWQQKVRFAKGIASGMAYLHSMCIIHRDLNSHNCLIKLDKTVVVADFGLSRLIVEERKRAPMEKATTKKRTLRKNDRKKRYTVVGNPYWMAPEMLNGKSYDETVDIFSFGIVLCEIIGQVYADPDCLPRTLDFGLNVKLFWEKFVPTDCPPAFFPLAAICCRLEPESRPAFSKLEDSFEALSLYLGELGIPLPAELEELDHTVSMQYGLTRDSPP

Q: What does the source list for `CC(C)S(=O)(=O)c1ccccc1Nc1nc(Nc2ccc(N3CCN(CCOCCNC(=O)CNc4cccc5c4C(=O)N(C4CCC(=O)NC4=O)C5=O)CC3)cc2)ncc1Cl` (centres unmarked) [SK.3.91]?
A: logFC LCK [1, 5]: −0.9189; logFC LCK [1, 6]: −1.148; logFC LCK [1, 7]: −1.575; logFC LCK [1, 8]: −0.5352; logFC LCK [1, 9]: −1.277; logFC ([1]; LIMK2 (P53671-3), experiment wp105, direction down): −0.8401; logFC of LIMK2 ([1]; LIMK2 P53671-3, experiment wp105): −0.8401; logFC ([1]; MARK2 Q7KZI7-14, experiment wp105): −0.4159; logFC ([1]; MARK2 Q7KZI7-14, experiment wp133, 4 hr): −0.4086; logFC ([1]; PIP5K1A (Q99755-3), experiment wp107): −0.45; logFC ([1]; PIP5K1A (Q99755-3), experiment wp133, 4 hr): −0.3712; logFC ([1]; PTK2B (Q14289-2), experiment wp107, direction down): −3.126; logFC PTK2B ([1]; PTK2B, accession Q14289-2, experiment wp107, direction of change down): −3.126; logFC RPS6KA1 ([1]; experiment wp016, 1 uM): −0.4146; logFC RPS6KA1 ([1]; experiment wp133, 4 hr): −0.3598; logFC ([1]; SRC (P12931-2) protein abundance, degrader vs DMSO, 1 uM, down): −0.8428; logFC ([1]; SRC (P12931-2) protein abundance, degrader vs DMSO, 4 hr, down): −0.6408; logFC ([1]; STK40 (Q8N2I9-4), experiment wp105, direction down): −0.606; logFC ([1]; STK40 Q8N2I9-4, experiment wp105): −0.606; logFC ([1]; TNK2 (Q07912-3), experiment wp107, direction down): −1.18; logFC CDK9 (P50750-2) ([1]; experiment wp016): −0.6515; logFC PRKAA1 (Q13131-2) ([1]; experiment wp016): −0.4914; logFC ABL1 (P00519-2) ([1]; experiment wp016, 1 uM): −0.3875; logFC CDK9 (P50750-2) ([1]; experiment wp016, 1 uM): −1.356; logFC PRKAA1 (Q13131-2) ([1]; experiment wp016, 1 uM): −0.7977; logFC RPS6KA1 (Q15418-2) ([1]; experiment wp016, 1 uM): −0.4146; logFC LCK (P06239-3) ([1]; experiment wp016, 1 uM, direction of change down): −1.579; logFC LCK (P06239-3) [1, 5]: −0.9189; logFC PRKAA1 (Q13131-2) ([1]; experiment wp103): −0.5012; logFC LCK (P06239-3) [1, 6]: −1.148; logFC ABL1 (P00519-2) ([1]; experiment wp105): −0.333; logFC CDK9 (P50750-2) ([1]; experiment wp105): −0.6775; logFC CDK16 (Q00536-2) ([1]; experiment wp105): −0.6346; logFC PRKAA1 (Q13131-2) ([1]; experiment wp105): −0.4413; logFC of CDK18 (Q07002-3) ([1]; experiment wp105): −1.233; logFC of MARK2 (Q7KZI7-14) ([1]; experiment wp105): −0.4159; logFC ABL1 (P00519-2) ([1]; experiment wp107): −0.4711; logFC CDK16 (Q00536-2) ([1]; experiment wp107): −0.4701; logFC PRKAA1 (Q13131-2) ([1]; experiment wp107): −0.6352; logFC ULK3 (Q6PHR2-4) ([1]; experiment wp107): −1.084; logFC LCK (P06239-3) [1, 7]: −1.575; logFC TGFBR1 (P36897-2) [1, 7]: −0.5264; logFC ULK3 (Q6PHR2-4) [1, 7]: −1.084; logFC CDK9 (P50750-2) ([1]; experiment wp133, 2 hr): −0.3971; logFC PRKAA1 (Q13131-2) ([1]; experiment wp133, 2 hr): −0.3804; logFC LCK (P06239-3) [1, 8]: −0.5352; logFC ABL1 (P00519-2) ([1]; experiment wp133, 4 hr): −0.3801; logFC CDK9 (P50750-2) ([1]; experiment wp133, 4 hr): −1.037; logFC PRKAA1 (Q13131-2) ([1]; experiment wp133, 4 hr): −0.6752; logFC RPS6KA1 (Q15418-2) ([1]; experiment wp133, 4 hr): −0.3598; logFC of MARK2 (Q7KZI7-14) ([1]; experiment wp133, 4 hr): −0.4086; logFC LCK (P06239-3) [1, 9]: −1.277; logFC of CDK12 (Q9NYV4-2) ([1]; experiment wp160, 4 hr): −0.8448; logFC MAP3K12 ([1]; protein MAP3K12 (Q12852-2), experiment wp105, down): −0.6931; logFC TGFBR1 ([1]; protein TGFBR1 (P36897-2), experiment wp107, down): −0.5264; logFC TNK1 ([1]; protein TNK1 (Q13470-2), experiment wp114, down): −0.7394; logFC CDK4 (P11802) ([2]; Experiment wp160, 2 hr): −0.9104; logFC CDK4 (P11802) ([2]; experiment wp016): −1.161; logFC CDK4 (P11802) ([2]; experiment wp016, 1 uM): −1.429; logFC CDK4 (P11802) ([2]; experiment wp103): −1.029; logFC CDK4 (P11802) ([2]; experiment wp105): −0.7995; logFC CDK4 (P11802) ([2]; experiment wp107): −1.272; logFC CDK4 (P11802) ([2]; experiment wp114): −0.5605; logFC CDK4 (P11802) ([2]; experiment wp133, 2 hr): −0.7484; logFC CDK4 (P11802) ([2]; experiment wp133, 4 hr): −1.292; logFC CDK4 (P11802) ([2]; experiment wp160, 1 hr): −0.4329; logFC CDK4 (P11802) ([2]; experiment wp160, 4 hr): −1.353; logFC BLK ([3]; experiment wp103): −1.625; logFC BLK ([3]; experiment wp107): −1.649; logFC BLK ([3]; experiment wp133, 1 hr): −0.3727; logFC BLK ([3]; experiment wp133, 2 hr): −0.8217; logFC BLK ([3]; experiment wp133, 4 hr): −1.49; logFC BLK ([3]; experiment wp160, 2 hr): −0.8744; logFC BLK ([3]; experiment wp160, 4 hr): −1.678; logFC of BLK [3]: −1.446; logFC of BLK ([3]; 1 uM): −1.977; logFC of BLK (P51451) ([3]; Experiment wp016, 1 uM): −1.977; logFC of BLK (P51451) ([3]; Experiment wp016): −1.446; logFC of BLK (P51451) ([3]; Experiment wp103): −1.625; logFC of BLK (P51451) ([3]; Experiment wp107): −1.649; logFC of BLK (P51451) ([3]; Experiment wp133, 1 hr): −0.3727; logFC of BLK (P51451) ([3]; Experiment wp133, 2 hr): −0.8217; logFC of BLK (P51451) ([3]; Experiment wp133, 4 hr): −1.49; logFC of BLK (P51451) ([3]; Experiment wp160, 2 hr): −0.8744; logFC of BLK (P51451) ([3]; Experiment wp160, 4 hr): −1.678; logFC LIMK2 ([4]; experiment wp016, 1 uM): −1.441; logFC LIMK2 ([4]; experiment wp016): −1.061; logFC LIMK2 ([4]; experiment wp103): −1.431; logFC LIMK2 ([4]; experiment wp107): −1.878; logFC LIMK2 ([4]; experiment wp114): −0.8414; logFC LIMK2 ([4]; experiment wp133, 2 hr): −0.7575; logFC LIMK2 ([4]; experiment wp133, 4 hr): −1.342; logFC LIMK2 ([4]; experiment wp172): −0.8984; logFC of LIMK2 ([4]; experiment wp016): −1.061; logFC of LIMK2 ([4]; experiment wp016, 1 uM): −1.441; logFC of LIMK2 ([4]; experiment wp103): −1.431; logFC of LIMK2 ([4]; experiment wp107): −1.878; logFC of LIMK2 ([4]; experiment wp114): −0.8414; logFC of LIMK2 ([4]; experiment wp133, 2 hr): −0.7575; logFC of LIMK2 ([4]; experiment wp133, 4 hr): −1.342; logFC of LIMK2 ([4]; experiment wp172): −0.8984
